Measured values taken from patent US10603279B2, “Compositions of lopinavir” (The University of Liverpool, priority 2011, dated 2020).

Columns and labels:
HIVIIIB = assay: Inhibition of cultured HIV-IIIB in MT4 cells (MTT assay); type: cell-based, HIVIIIB in human T-cell line MT4; conditions: Human immunodeficiency virus 1, 120 h, 70% loaded, 5 days, read-out: IC50 (Table 10, activity against cultured HIV virus)
Method: HIVIIIB and the human T-cell line, MT4, were supplied by the National Institute for Biological Standards and Control (NIBSC), the Centre for AIDS Reagents (CFAR: Hertfordshire, Uk). MT4 cells were grown and routinely maintained in RPMI-1640 (Sigma; Dorest, Uk) supplemented with 10% fetal bovine serum (FBS; Bio-Whittaker, Berkshire, Uk) at 37° C. and 5% CO2 and sub-cultured every 3 days. Cell counts and viability was determined by Trypan Blue exclusion using a disposable plastic haemocytometer (Labtech International Ltd, UK). HIVIIIB was propagated by passage through MT4 cells in RPMI-1640 and 10% FBS for 12 days and a subsequent multiplicity of infection (MOI) was determined by MTT assay.
MT4 cells were dispensed into 50 ml falcon tubes and centrifuged at 2000 rpm and 4° C. for 5 minutes. The supernantant was aspirated and the resulting pellet resuspended to a cell density of 1×10^5/ml in RPMI 1640 supplemented with 10% FBS and 1 ml of viral isolate (M.O.I 0.001). After further centrifugation for 5 minutes at 2000 rpm, the MT4/HIVIIIB pellet was incubated at 37° C. and 5% CO2 for 2 hours. […]
Following incubation for 5 days of MT4/HIVIIIB with nano formulated LOPINAVIR at 37° C. and 5% CO2. […] Absorbance was read at 570 nm on a plate reader (Tecan Magellan, Austria).

[1] = target: recombinant HIV-1 protease (UniProt P04585); assay: Inhibition of recombinant HIV-1 protease; type: biochemical; conditions: 70% loaded; cell-free assay; read-out: IC50 against recombinant HIV protease
Method: HIV-1 protease inhibition screening was conducted as per manufacturers' instructions (Roche Diagnostics GmbH; Germany). […] The entire sample (60 μl) was then transferred into microplate modules and incubated for a further 60 minutes at 37° C. The samples were then aspirated and washed ×5 with 250 μl of wash buffer. After the final aspiration, 200 μl of reconstituted anti-digoxigenin-peroxidase (Anti-DIG-POD) polyclonal antibody (200 mU/ml final concentration) was added to all wells and the plate returned to the incubator for a further 60 minutes at 37° C. The samples were aspirated and washed ×5 with wash buffer. Finally, after the final wash buffer was aspirated, 200 μl of ABTS substrate was added to each well and the plate incubated at room temperature for 15 minutes. Absorbance was then measured at 405 nm using FLUOstar Omega microplate reader (BMG Labtech, Uk).

[2] = ATP cell viability assay (CellTiter-Glo) cytotoxicity; type: cell-based; conditions: human, A-THP-1 (PMA-activated THP-1, macrophage like) cells, 70% lopinavir loaded, 24 hours incubation
Source text: HepG2 (hepatic) and Caco-2 (intestinal) cells were purchased from American Type Tissue Culture (ATCC; USA) and maintained in Dulbecco's modified eagle's medium (DMEM; Sigma; Dorest, Uk) supplemented with 10% fetal bovine serum (FBS; Bio-Whittaker, Berkshire, Uk) for HepG2 and 15% FBS for Caco-2. CEM (lymphocyte) and THP-1 (monocyte) cells were purchased from European Collection of Cell Culture (ECACC; Porton Down, Uk) and grown in RPMI-1640 (Sigma; Dorest, Uk) supplemented with 10% FBS. All cell lines were incubated at 37° C. and 5% CO2 and for adherent cells (HepG2 and Caco-2) were routinely sub-cultured every 4 days when 95% confluent. Suspension cells (CEM and THP-1) were routinely sub-cultured when a density of 1×10^6 cells/ml was achieved. Cell count and viability was determined by Trypan Blue exclusion assay. […]
HepG2, Caco-2, THP-1, CEM and A-THP-1 cells were separately seeded at a density of 2.5×10^4/100 μl in their appropriate media into each well of a 96 well plate (Nunclon™, Denmark) and incubated for 24 hours at 37° C. and 5% CO2. Media was then aspirated and replaced with media containing 0.1, 1, 10, 100, 500 or 1000 μM, calculated from molarity of lopinavir (145 samples), of each lopinavir dispersion and incubated for a further 24 hours. […]

[3] = as above; type: cell-based; conditions: human, 70% lopinavir loaded, 24 hours incubation
Source text: HepG2 (hepatic) and Caco-2 (intestinal) cells were purchased from American Type Tissue Culture (ATCC; USA) and maintained in Dulbecco's modified eagle's medium (DMEM; Sigma; Dorest, Uk) supplemented with 10% fetal bovine serum (FBS; Bio-Whittaker, Berkshire, Uk) for HepG2 and 15% FBS for Caco-2. CEM (lymphocyte) and THP-1 (monocyte) cells were purchased from European Collection of Cell Culture (ECACC; Porton Down, Uk) and grown in RPMI-1640 (Sigma; Dorest, Uk) supplemented with 10% FBS. All cell lines were incubated at 37° C. and 5% CO2 and for adherent cells (HepG2 and Caco-2) were routinely sub-cultured every 4 days when 95% confluent. Suspension cells (CEM and THP-1) were routinely sub-cultured when a density of 1×10^6 cells/ml was achieved. Cell count and viability was determined by Trypan Blue exclusion assay.
HepG2, Caco-2, THP-1, CEM and A-THP-1 cells were separately seeded at a density of 2.5×10^4/100 μl in their appropriate media into each well of a 96 well plate (Nunclon™, Denmark) and incubated for 24 hours at 37° C. and 5% CO2. Media was then aspirated and replaced with media containing 0.1, 1, 10, 100, 500 or 1000 μM, calculated from molarity of lopinavir (145 samples), of each lopinavir dispersion and incubated for a further 24 hours. The same procedure was followed for each individual excipient (23 samples) with concentrations range of 1 μM to 1M.
Prior to starting viability assays, all reagents were made fresh and in accordance to manufacturer's instructions and allowed to equilibrate to room temperature immediately before use. After 24 hours incubation, 96 well plates were removed from the incubator and the plate and its contents allowed too equilibrate to room temperature for approximately 30 minutes. After 30 minutes, 80 μl of media was aspirated from each individual well and 20 μl CellTiter-Glo® Reagent (Promega, UK) was added to the remaining media and cells. The contents were then mixed for 2 minutes on an orbital shaker to induce cell lysis. The plate was then further incubated at room temperature for 10 minutes to stabilise luminescent signal. Luminescence was then measured using a Tecan Genios plate reader (Tecan; Austria).

Compound `Cc1cccc(C)c1OCC(=O)N[C@@H](Cc1ccccc1)[C@@H](O)C[C@H](Cc1ccccc1)NC(=O)[C@H](C(C)C)N1CCCNC1=O` [Aqueous solution, lopinavir] has an IC50 (HIVIIIB) of 56 nM, an IC50 [1] of 32 nM and an IC50 at 24 h [2] of 84.3 µM. It also gave an IC50 at 24 h ([3]; CEM (lymphocyte) cells) of 100 µM, an IC50 at 24 h ([3]; Caco-2 (intestinal) cells) of 52.5 µM and an IC50 at 24 h ([3]; HepG2 (hepatic) cells) of 35.8 µM. It also gave an IC50 at 24 h ([3]; THP-1 (monocyte) cells) of 28.3 µM.
